{"source": "paper PMC6081875", "about": "(EJNMMI Research, 2018)", "key": {"bone marrow": {"test_system": "bone marrow", "assay": "Bone marrow dosimetry, reference protocol (RP): sequential whole-body planar and quantitative SPECT images plus blood samples, organ-level S values", "assay_type": "in vivo", "protocol": "(§1) Data for dosimetry were acquired during a routine 4-day in-patient stay following the radiopharmaceutical injection, in conjunction with standard clinical examinations. All patients received a 15-min one-bed abdominal SPECT scan and a 20-min whole-body planar scintigraphy at 24, 48, and 72 h post-injection (p. i.) on a dual-headed Symbia T2 SPECT/CT (Siemens Medical Solutions, Erlangen, Germany). Counts were detected for the photopeak window of 208 keV (width 15%) by the usage of a medium-energy low-penetration collimator. Two additional scatter windows were measured at 170 keV (width 15%) and 240 keV (width 10%). A low-dose AC-CT was acquired at the first image acquisition session for anatomical correlation and attenuation correction during quantitative SPECT reconstruction. For the determination of the absorbed dose to the bone marrow from the activity circulating in the blood, five venous blood samples were drawn from the site contralateral to injection at 30 and 80 min p. i. and 24, 48, and 72 h p. i..\nQuantitative SPECT images were reconstructed as described by Delker et al. via a rotation-based, penalised, one-step-late ordered subset expectation maximisation algorithm, which included corrections for scatter, attenuation, and distance-dependent geometrical collimator blur. Attenuation correction was performed for each SPECT scan via the AC-CT, which was acquired along with the SPECT scan 24 h post-injection. To apply the attenuation correction, especially to the SPECT scans 48 and 72 h p. i., the single AC-CT was co-registered onto an initial SPECT reconstruction without attenuation correction by using a rigid body co-registration algorithm with six degrees of freedom (PMOD Version 3.609, PMOD Technologies, Zurich, Switzerland). If only one AC-CT is acquired for sequential SPECT imaging, special care has to be taken to minimise misregistration between SPECT images and separately acquired CT scans, as such a misalignment can distort the proper attenuation correction and, thus, activity quantification. This is in principal also true for serial SPECT and CT imaging, as even within a single image acquisition session patient movements cannot be entirely avoided. Scatter correction employed the triple energy window (TEW) method. Correction for distance-dependent collimator blur made use of a Gaussian blur model. Corrections for partial volume effects and dead time were not applied. For conversion of the measured counts per second and per voxel to Becquerel per millilitre, an appropriate calibration factor was determined. Therefore, we used a large cylinder of approximately 20 cm diameter, which was filled with a known activity concentration and which has been imaged and reconstructed via the same protocol.\nFor each patient, all acquired whole-body planar images were corrected for scatter and attenuation on a pixel basis via a dedicated MATLAB routine (Fig. 1); for the correction of scatter, the TEW method was applied, as for the quantitative SPECT images. For the attenuation correction, a linear projection of μ values along the ventral axis of the patient was created from the diagnostic CT image of the pre-therapeutic Ga-68 PET/CT scan, which covered nearly the whole patient body from the middle of the head to approximately the knees. Therefore, a conversion between the Hounsfield units (HUs) in the diagnostic CT and the μ values at 208 keV was established by acquiring a CT scan of a Gammex tissue phantom (Gammex 467; Gammex, Inc., Middleton, WI) with 16 tissue rods of known composition and thus known attenuation characteristics. The μ values of all rods were plotted against the measured HUs, and a bilinear fit model (range 1: HU = (− 688;0); range 2: HU = (0;1127)) was applied to the whole data set. This calibration curve allows for the assignment of μ values to a continuous range of HUs. […]"}, "[1]": {"assay": "Whole-body effective half-life from sequential whole-body planar images (mono-exponential fit)", "assay_type": "in vivo, human", "conditions": "mono-exponential fit, 24, 48, 72 h p. i.", "protocol": "as §1\nFor each patient, all acquired whole-body planar images were corrected for scatter and attenuation on a pixel basis via a dedicated MATLAB routine (Fig. 1); for the correction of scatter, the TEW method was applied, as for the quantitative SPECT images. For the attenuation correction, a linear projection of μ values along the ventral axis of the patient was created from the diagnostic CT image of the pre-therapeutic Ga-68 PET/CT scan, which covered nearly the whole patient body from the middle of the head to approximately the knees. Therefore, a conversion between the Hounsfield units (HUs) in the diagnostic CT and the μ values at 208 keV was established by acquiring a CT scan of a Gammex tissue phantom (Gammex 467; Gammex, Inc., Middleton, WI) with 16 tissue rods of known composition and thus known attenuation characteristics. The μ values of all rods were plotted against the measured HUs, and a bilinear fit model (range 1: HU = (− 688;0); range 2: HU = (0;1127)) was applied to the whole data set. This calibration curve allows for the assignment of μ values to a continuous range of HUs. The lower arms and legs as well as a part of the head were not included in the PET/CT data, as the arms are usually positioned above the head during the PET/CT scan and as the PET/CT scan is usually not acquired over the entire patient length. By contrast, the arms, legs, and head are fully included in the whole-body planar images, and an appropriate μ value has to be defined for each segment (Fig. 1). Thus, mean μ values derived from three patients with PET/CT acquisitions of the head, legs, and arms were assigned to the missing segments. Therefore, all segments—the part visible on the PET/CT and the missing parts of the head, arms, and legs—were delineated on the co-registered whole-body planar images (delineation and rigid body co-registration via PMOD Version 3.609). The resulting map of the regions of interest (ROI) was saved, with each ROI segment being characterised via a defined value. This ROI map was then loaded by a self-designed MATLAB routine, which assigned the defined μ value to each segment according to the ROI number. Afterwards, the resulting whole-body integral μ-map was blurred via a Gaussian filter with a width approximating an average resolution of the gamma camera (geometric resolution of full width at half maximum of 11 mm at 10 cm). Pixel-wise attenuation correction was finally performed in conjunction with geometric averaging of both planar views (conjugate view method).\nCalibration of whole-body planar images was performed via the corresponding quantitative abdominal SPECT by using the fact that ideally the total activity ASPECT within the quantitative SPECT should be correlated to the number of counts per second (cps) xplanar in the planar abdominal counterpart multiplied by an appropriate calibration factor: […]"}, "[2]": {"conditions": "median of n = 5 patients per therapy, approx. 7.4 GBq Lu-177-Octreotate (NET) or 3.7 GBq Lu-177-PSMA-617 (mCRPC)"}, "[3]": {"conditions": "median of n = 5 patients per therapy"}}}
{"smiles": "C[C@@H](O)[C@H](NC(=O)[C@@H]1CSSC[C@H](NC(=O)[C@@H](Cc2ccccc2)NC(=O)CN2CCN(CC(=O)O)CCN(CC(=O)O)CCN(CC(=O)O)CC2)C(=O)N[C@@H](Cc2ccc(O)cc2)C(=O)N[C@H](Cc2c[nH]c3ccccc23)C(=O)N[C@@H](CCCCN)C(=O)N[C@@H]([C@@H](C)O)C(=O)N1)C(=O)O", "note": "[Lu-177-Octreotate, Lu-177-[DOTA^0,Tyr^3]-Octreotate, metal not drawn]", "values": [{"measurement": "DBM ← total, total bone marrow absorbed dose, RP", "setting": "bone marrow; [2]", "result": 12.1, "unit": "mGy/GBq"}, {"measurement": "DBM ← total, total bone marrow absorbed dose, RP", "setting": "bone marrow; patient P1 (NET, 7654 MBq)", "result": 12.1, "unit": "mGy/GBq"}, {"measurement": "DBM ← total, total bone marrow absorbed dose, RP", "setting": "bone marrow; patient P2 (NET, 7425 MBq)", "result": 9.6, "unit": "mGy/GBq"}, {"measurement": "DBM ← total, total bone marrow absorbed dose, RP", "setting": "bone marrow; patient P3 (NET, 7420 MBq)", "result": 15.6, "unit": "mGy/GBq"}, {"measurement": "DBM ← total, total bone marrow absorbed dose, RP", "setting": "bone marrow; patient P4 (NET, 7409 MBq)", "result": 11.8, "unit": "mGy/GBq"}, {"measurement": "DBM ← total, total bone marrow absorbed dose, RP", "setting": "bone marrow; patient P5 (NET, 7410 MBq)", "result": 12.7, "unit": "mGy/GBq"}, {"measurement": "T1/2, WB, planar-based whole-body effective half-life", "setting": "[1]; [3]", "result": 43, "unit": "h"}, {"measurement": "T1/2, WB, planar-based whole-body effective half-life", "setting": "[1]; patient P1 (NET)", "result": 40, "unit": "h"}, {"measurement": "T1/2, WB, planar-based whole-body effective half-life", "setting": "[1]; patient P2 (NET)", "result": 43, "unit": "h"}, {"measurement": "T1/2, WB, planar-based whole-body effective half-life", "setting": "[1]; patient P3 (NET)", "result": 43, "unit": "h"}, {"measurement": "T1/2, WB, planar-based whole-body effective half-life", "setting": "[1]; patient P4 (NET)", "result": 52, "unit": "h"}, {"measurement": "T1/2, WB, planar-based whole-body effective half-life", "setting": "[1]; patient P5 (NET)", "result": 62, "unit": "h"}]}
{"smiles": "O=C(O)CC[C@H](NC(=O)N[C@@H](CCCCNC(=O)[C@H](Cc1ccc2ccccc2c1)NC(=O)[C@H]1CC[C@H](CNC(=O)CN2CCN(CC(=O)O)CCN(CC(=O)O)CCN(CC(=O)O)CC2)CC1)C(=O)O)C(=O)O", "note": "[Lu-177-PSMA-617, Lu-177-DKFZ-PSMA-617, metal not drawn]", "values": [{"measurement": "DBM ← total, total bone marrow absorbed dose, RP", "setting": "bone marrow; [2]", "result": 10.2, "unit": "mGy/GBq"}, {"measurement": "DBM ← total, total bone marrow absorbed dose, RP", "setting": "bone marrow; patient P6 (mCRPC, 3718 MBq)", "result": 10.2, "unit": "mGy/GBq"}, {"measurement": "DBM ← total, total bone marrow absorbed dose, RP", "setting": "bone marrow; patient P7 (mCRPC, 3743 MBq)", "result": 6.7, "unit": "mGy/GBq"}, {"measurement": "DBM ← total, total bone marrow absorbed dose, RP", "setting": "bone marrow; patient P8 (mCRPC, 3745 MBq)", "result": 16.8, "unit": "mGy/GBq"}, {"measurement": "DBM ← total, total bone marrow absorbed dose, RP", "setting": "bone marrow; patient P9 (mCRPC, 3752 MBq)", "result": 14.2, "unit": "mGy/GBq"}, {"measurement": "DBM ← total, total bone marrow absorbed dose, RP", "setting": "bone marrow; patient P10 (mCRPC, 3700 MBq)", "result": 8.3, "unit": "mGy/GBq"}, {"measurement": "T1/2, WB, planar-based whole-body effective half-life", "setting": "[1]; [3]", "result": 31, "unit": "h"}, {"measurement": "T1/2, WB, planar-based whole-body effective half-life", "setting": "[1]; patient P6 (mCRPC)", "result": 22, "unit": "h"}, {"measurement": "T1/2, WB, planar-based whole-body effective half-life", "setting": "[1]; patient P7 (mCRPC)", "result": 31, "unit": "h"}, {"measurement": "T1/2, WB, planar-based whole-body effective half-life", "setting": "[1]; patient P8 (mCRPC)", "result": 65, "unit": "h"}, {"measurement": "T1/2, WB, planar-based whole-body effective half-life", "setting": "[1]; patient P9 (mCRPC)", "result": 39, "unit": "h"}, {"measurement": "T1/2, WB, planar-based whole-body effective half-life", "setting": "[1]; patient P10 (mCRPC)", "result": 29, "unit": "h"}]}
